A short description of this data set: storage stability of the amorphous form, followed by XRPD. Type of data set: physicochemical. As to conditions: storage at 25° C. and 52% relative humidity (RH) for 24 days; XRPD pattern similar to FIG. 5 (sample of Example 3). How it is done:
XRPD of the samples were determined by using a Panalytical X'Pert Pro X-Ray Powder Diffractometer in the range 3-40 degree 2 theta and under a tube voltage and current of 45 Kv and 40 mA, respectively. Copper radiation of wavelength 1.54 angstrom and Xceletor detector was used.

As for `Cl.N#Cc1ccc2[nH]cc(CCCCN3CCN(c4ccc5oc(C(N)=O)cc5c4)CC3)c2c1` [amorphous vilazodone hydrochloride, 5-{4-[4-(5-cyano-1H-indo1-3-yl)butyl]piperazin-1-yl}-1-benzofuran-2-carboxamide hydrochloride], the “polymorphic stability on storage (XRPD)” value was “stable and does not convert to any other polymorphic form”.
